Each structure is given as a SMILES string.

One series deals with electrocardiogram. Kind of series: Evaluation of electrocardiogram in a rat (under anesthesia). In kind it is in vivo. The protocol:
Under anesthesia, femoral artery was cannulated in a 7-11-week-old male SD rat (Charles River Laboratories Japan Inc.) that had been reared for more than one week, connected to a polygraph (NIHON KODEN) via a pressure transducer. Without consciousness, a vehicle (dimethylsulfoxide) or a test compound was intravenously administered. After the administration, blood pressure, the heart rate, and electrocardiogram were monitored for about 10 minutes.

In a further series the test system is enterobacterium. Kind of series: Stability against enterobacterium (feces / cecum homogenates). It counts as in vitro ADME. As to conditions: cynomolgus monkey feces and rat cecum homogenates, 3 and 30 μM, 37° C., 24 hours; all conditions. The protocol: A culture medium was added to fresh feces of a cynomolgus monkey and rat cecum to prepare homogenates. To a homogenate was added the compound of the Example 2, or 1-{4-[5-(4-isopropoxyphenyl)-1,2,4-oxadiazol-3-yl]benzyl}azetidine-3-carboxylic acid (the compound of the Example 29 of Non-Patent Document 5) adjusted at a concentration of 3 and 30 μM, and the mixture was anaerobically cultured at 37° C. for 24 hours. After the cultivation, the concentration of the residual compound in the culture medium was measured on LC-MS.

The target in series [1] is T1, Human S1P1 receptor (Homo sapiens, UniProt P21453). Kind of series: Agonist activity at an S1P1 receptor ([35S]-GTPγS exchange reaction, membrane fractions). In kind it is biochemical. Particulars: read-out: EC50, agonist activity at S1P1 receptor (GTP exchange reaction). The protocol: (§1) By using membrane fractions prepared from a human S1P1 receptor expressing cells (Multispan Ltd.), the agonist activity of each test compound was measured by [^35S]-GTPγS exchange reaction in accordance with a standard procedure (Methods in Molecular Biology, Vol. 552, p 143-151 (2009)), and EC50 (nM) of each test compound was computed.

The target of the next series is Human S1P3 receptor (Homo sapiens, UniProt Q99500). Kind of series: Agonist activity at an S1P3 receptor ([35S]-GTPγS exchange reaction at 1000 nM). In kind it is biochemical. Particulars: read-out: percent of the maximal agonist activity at S1P3 receptor. The method, then:
as §1
By using membrane fractions prepared from Human S1P3 receptor expressing cells (Multispan Inc.), the agonist activity of the compound in the present invention was measured by a [^35S]-GTPγS exchange reaction at 1000 nM by the similar method of the Experimental Example 2.

For series [2], the target named is T1, Human S1P1 receptor. Kind of series: Agonist activity at an S1P1 receptor (reporter assay, EDG1-bla/U2OS cells). As to conditions: S1P maximum response = 100%. In kind it is cell-based. Set-up: host or cells: U2OS (EDG1-bla/U2OS). The method, then:
Human S1P1 receptor gene recombinant EDG1-bla/U2OS cells (Life Technologies Japan Ltd.) were plated in a 96-well half-sized clear bottom black plate at a density of 10000 cells/32 μL/well, and then the plate was incubated at 37° C. in a 5% CO2 incubator for 48 hours. A culture medium containing each test compound prepared as a 5× concentrate was added at 8 μL/well, and the plate was incubated at 37° C. in a 5% CO2 incubator for 5 hours. The substrate (LiveBLAzer™-FRET B/G substrate (CCF4-AM), Life Technologies Japan Ltd.) prepared as a 6× concentrate was added at 8 μL into each well, and the plate was incubated at room temperature for 2 hours in the dark. The fluorescence intensity of each well was detected using a bottom-reading fluorescence microplate reader (EnVision: ParkinElmer) at one excitation wavelength and 2 wavelengths for fluorescence emission (Ex409 nm, Em460 nm, Em530 nm). The intensity ratio of fluorescence at 460 nm/530 nm was calculated for each well. The maximum response ratio confirmed from the dose response of SIP was expressed as 100%. The concentration of a test compound required to stimulate 50% of its maximal activation was computed as EC50 (nM).
Background: In a reporter assay the amount or activity of a reporter protein is the signal.

In another series the target is T2, Human S1P4 receptor (Homo sapiens, UniProt O95977).
T2 sequence (O95977 1-384): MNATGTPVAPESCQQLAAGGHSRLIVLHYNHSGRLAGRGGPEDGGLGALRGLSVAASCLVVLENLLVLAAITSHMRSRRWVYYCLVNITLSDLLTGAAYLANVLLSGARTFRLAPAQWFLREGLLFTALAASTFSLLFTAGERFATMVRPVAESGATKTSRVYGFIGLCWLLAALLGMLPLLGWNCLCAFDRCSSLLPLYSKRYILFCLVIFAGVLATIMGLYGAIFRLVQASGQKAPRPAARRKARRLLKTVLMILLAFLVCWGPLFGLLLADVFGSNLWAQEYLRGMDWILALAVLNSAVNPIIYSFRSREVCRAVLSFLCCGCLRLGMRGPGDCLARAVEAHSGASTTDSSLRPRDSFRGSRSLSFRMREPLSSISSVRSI
Kind of series: Agonist activity at an S1P4 receptor (calcium influx). It counts as cell-based. As to conditions: at 1000 nM; read-out: activity at S1P4 receptor (elevation of intracellular calcium). The protocol:
By using Human S1P4 receptor expressing cells (Multispan Inc. CG1052-1), the elevation of intracellular calcium concentration via agonist activity by the addition of 1000 nM was measured by Fret method (fluorescence resonance energy transfer).
(In general: A change in cytosolic calcium serves as a functional read-out for many receptors and channels.)

The subject of series [3] is electrocardiogram / monophasic action potential (MAP). Kind of series: Evaluation of cardiovascular system in a guinea pig. In kind it is in vivo. As to conditions: anesthetized guinea pig, 0.1 mg/kg body weight, infusion. The text has this: Under anesthesia with 0.5 to 1% of halothane, to a male Hartley guinea-pig (Japan SLC, Inc.) that had been reared for more than one week, a catheter for administration of a drug solution was placed into the left jugular vein, a monophasic action potential (MAP) measurement/pacing catheter was placed into the endothelial lining of the right ventricle, a catheter for measuring blood pressure was placed into the left carotid artery, and the measurement of body surface electrocardiogram (lead II) was conducted. The drug solution was infused for 10 minutes and the measurement was carried out over 60 minutes. Also, 5, 10, 15, 20, 30, 45 and 60 minutes after the administration of the drug solution, pacing was performed (200, 240, 300 bpm), and monophasic action potential (MAP) was measured.

The test system of another series is blood lymphocytic cells. Kind of series: Suppressive effect on circulating lymphocytic cells in a rat. In kind it is in vivo. Particulars: 6 hours after administration. The protocol:
Under anesthesia, a femoral artery was cannulated in a 7-11-week old male SD rat (Charles River Laboratories Japan Inc.) that had been reared for more than one week. A vehicle (in case of intravascular administration, 10% PEG300-0.01 M KOH saline was used, and in case of oral administration, 0.5% hydroxymethyl cellulose solution was used) or a test compound was administered intravascularly or by gavage administration. Right before the administration or 2, 4, 6 hours after the administration, the number of blood lymphocytic cells was counted by using an automated hematology analyzer XT-1800i or XT-2000i (Sysmex). The count of lymphocytic cells right before the administration was regarded as 100%, and the dose of the test compound that reduced blood lymphocytic cells by 50% of vehicle-treated group at the point of 6 hours after the administration was calculated as ED50 (mg/kg body weight).

Another series relates to heart rate. Kind of series: Evaluation of the heart rate in a rat (under consciousness). In kind it is in vivo. As to conditions: vascular administration. The protocol:
Under anesthesia, femoral artery was cannulated in a 7-11-week old male SD rat (Charles River Laboratories Japan Inc.) that had been reared for more than one week. Arterial cannula was connected to a pressure transducer, and under consciousness changes in the heart rate were monitored with a polygraph (Nihon Kohden) up to 4 hours after the vascular administration of the vehicle (10% PEG300-0.01M KOH saline) or the test compounds. The dose that lowered the heart rate by 20% was computed as TD20 (mg/kg body weight).

[4] abbreviates: anesthetized rat, intravenous 0.1 mg/kg body weight.

Sequence of Human S1P3 receptor (Q99500 whole entry): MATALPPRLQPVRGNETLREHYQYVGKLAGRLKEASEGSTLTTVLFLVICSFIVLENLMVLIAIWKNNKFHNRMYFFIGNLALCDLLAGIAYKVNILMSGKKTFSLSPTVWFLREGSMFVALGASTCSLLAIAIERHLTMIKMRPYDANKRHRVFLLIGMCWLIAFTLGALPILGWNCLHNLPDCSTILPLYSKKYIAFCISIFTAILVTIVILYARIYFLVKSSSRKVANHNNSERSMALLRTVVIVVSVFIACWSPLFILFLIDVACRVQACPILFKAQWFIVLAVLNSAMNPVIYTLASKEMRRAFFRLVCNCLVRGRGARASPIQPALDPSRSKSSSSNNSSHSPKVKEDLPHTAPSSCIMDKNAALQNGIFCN
T1 sequence (P21453 whole entry): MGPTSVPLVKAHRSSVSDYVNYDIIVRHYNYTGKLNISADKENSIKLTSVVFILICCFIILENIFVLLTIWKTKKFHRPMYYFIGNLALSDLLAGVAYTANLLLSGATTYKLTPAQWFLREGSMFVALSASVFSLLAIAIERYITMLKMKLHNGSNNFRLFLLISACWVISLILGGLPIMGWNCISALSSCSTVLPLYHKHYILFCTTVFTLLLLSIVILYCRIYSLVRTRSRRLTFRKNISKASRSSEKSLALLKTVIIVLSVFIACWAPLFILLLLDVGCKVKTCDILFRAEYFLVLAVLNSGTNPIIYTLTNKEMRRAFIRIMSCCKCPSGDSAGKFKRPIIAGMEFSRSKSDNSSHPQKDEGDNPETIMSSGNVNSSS

As to `CC(C)Oc1ccc(-c2nc(-c3ccc(CN4CC(C(=O)O)C4)cc3)no2)cc1` [1-{4-[5-(4-isopropoxyphenyl)-1,2,4-oxadiazol-3-yl]benzyl}azetidine-3-carboxylic acid], in the series with electrocardiogram (setting [4]), the “cardiac arrest (cases)” value is 1 out of 3 and the “duration of continuous cardiac arrhythmia (AV block)” value turned out to be 170 s. The “residual compound after anaerobic culture with homogenate” value with enterobacterium is recorded as at most 2%.

What is called EC50 is the concentration at which the effect is half-maximal. As for `COc1cc(-c2ncc(-c3ccc(OC(C)C)c(Cl)c3)s2)ccc1CN1CC(C(=O)O)C1` [Example 64, 1-(4-(5-(3-chloro-4-isopropoxyphenyl)thiazol-2-yl)-2-methoxybenzyl)azetidine-3-carboxylic acid], the EC50 at Human S1P1 receptor [1] and on Human S1P1 receptor [2] was at most 10 nM each time. Also, at Human S1P3 receptor, the Emax at 1 µM is below 20%. The activation at 1 µM at Human S1P4 receptor is below 20%.

As for `CCCCCCCCc1ccc(CCC(N)(CO)CO)cc1` [Fingolimod, reference compound], in [3], the MAP90 prolongation effect result is “recognized” and the “prolonged QT” value is recorded as “recognized”. The “ED50, dose reducing blood lymphocytic cells by 50%” value in the series with blood lymphocytic cells (gavage administration) is recorded as 0.2 mg/kg body weight. Also, the “ED50, dose reducing blood lymphocytic cells by 50%” value in the series on blood lymphocytic cells (vascular administration) came to 0.06 mg/kg body weight. In addition, the “TD20, dose that lowered the heart rate by 20%” value in the series on heart rate (conscious rat) was 0.3 mg/kg body weight. Besides, in the series with heart rate (rat), the TD20/ED50 ratio stood at 5.

For `CCCCCCCCc1ccc(CCC(N)(CO)COP(=O)(O)O)cc1` (stereo not drawn) [phosphorylated form of Fingolimod], in the series on electrocardiogram (rat, in vivo, iv, 0.1 mg/kg), the “duration of continuous cardiac arrhythmia (AV block)” value was 120 s.

As for `CC(C)Oc1ccc(-c2cnc(-c3ccc(CN4CC(C(=O)O)C4)c(C(F)(F)F)c3)s2)cc1Cl` [Example 58, 1-(4-(5-(3-chloro-4-isopropoxyphenyl)thiazol-2-yl)-2-(trifluoromethyl)benzyl)azetidine-3-carboxylic acid], the values for the EC50 on Human S1P1 receptor [1] and at Human S1P1 receptor [2] were at most 50 nM and at most 1 nM, respectively. Besides, the Emax at 1 µM on Human S1P3 receptor was below 20%. Besides, at Human S1P4 receptor, the activation at 1 µM was below 20%.

Turning to `CC(C)c1ccc(-c2cnc(-c3ccc(CN4CC(C(=O)O)C4)cc3)s2)cc1` [Example 46, 1-(4-(5-(4-isopropylphenyl)thiazol-2-yl)benzyl)azetidine-3-carboxylic acid], the EC50 was at most 50 nM at Human S1P1 receptor [1] and at most 10 nM at Human S1P1 receptor [2]. Also, on Human S1P3 receptor, the Emax at 1 µM is below 20%. Moreover, the activation at 1 µM on Human S1P4 receptor is below 20%.

As to `COc1cc(CN2CC(C(=O)O)C2)ccc1-c1ncc(-c2ccc(OC(C)C)c(Cl)c2)s1` [Example 61, 1-(4-(5-(3-chloro-4-isopropoxyphenyl)thiazol-2-yl)-3-methoxybenzyl)azetidine-3-carboxylic acid], the EC50 is at most 10 nM at Human S1P1 receptor [1] and at most 100 nM at Human S1P1 receptor [2]. The Emax at 1 µM at Human S1P3 receptor is below 20%. For the same compound, the activation at 1 µM at Human S1P4 receptor is below 20%.

Consider `Cc1cc(CN2CC(C(=O)O)C2)ccc1-c1ncc(-c2ccc(OC(C)C)cc2)s1` [Example 21, 1-(4-(5-(4-isopropoxyphenyl)thiazol-2-yl)-3-methylbenzyl)azetidine-3-carboxylic acid], for which the EC50 on Human S1P1 receptor [1] was at most 50 nM; on Human S1P1 receptor [2] it was at most 10 nM. Also, the Emax at 1 µM on Human S1P3 receptor was 20 to 50%. Moreover, on Human S1P4 receptor, the activation at 1 µM was below 20%.
